Test results as given in article PMC7502707, “Characterization and validation of a preventative therapy for hypertrophic cardiomyopathy in a murine model of the disease” (Proceedings of the National Academy of Sciences of the …, 2020).

Experiments:
[1] = target: T1, cardiac L-type calcium channel (ICa-L) (Mus musculus, UniProt Q01815); assay: Whole-cell patch-clamp of ICa-L currents in ventricular myocytes; assay type: cell-based; conditions: cTnI-G203S myocytes, in vitro 1 μM peptide
T1 construct: measure changes in ICa-L currents ([13]), and stimulate calcium transients in intact ventricular myocytes; endogenous in cells; host or cells: ventricular myocytes isolated from wt (human cTnI transgene) and cTnI-G203S mice
Method: The whole-cell configuration of the patch-clamp technique was used to measure changes in ICa-L currents ([13]), and stimulate calcium transients in intact ventricular myocytes. Detailed methods are provided in SI Appendix.
Supporting Materials and Methods
Isolation of ventricular myocytes
Myocytes were isolated from wt and cTnI-G203S mice. Animals were anesthetized with pentobarbitone sodium (240 mg/kg) via intraperitoneal injection prior to excision of the heart. Cells were isolated as previously described (1-3). Mouse hearts were excised, cannulated onto a Langendorff apparatus via the aorta, and perfused with Krebs-Henseleit Buffer (KHB) containing […]
O2/CO2 at 37°C) for 4 min at 37°C. […]
The whole-cell configuration of the patch-clamp technique was used to measure changes in ICa-L currents (4), and stimulate calcium transients in intact ventricular myocytes. […] Currents were measured in extracellular modified Tyrode’s solution containing (in mM): NaCl 140, CsCl 5.4, CaCl2 2.5, MgCl2 0.5, HEPES 5.5 and glucose 11 (pH adjusted to 7.6 with NaOH). Macroscopic currents were recorded using an Axopatch 200B voltage-clamp amplifier (Molecular Devices) with a Digidata 1440A interface and pClamp10.5 software (Molecular Devices). […] The time course of changes in Ca2+ conductance were monitored by applying a 100 ms test pulse to 10 mV once every 10 seconds. […]

[2] = system: myocytes isolated from wt and cTnI-G203S mice; assay: Flavoprotein oxidation in myocytes isolated from treated mice; assay type: in vivo, mouse; conditions: myocytes from precardiomyopathic cTnI-G203S mice treated 10 μM i.p. 3×/wk/5 wk from 20 wk
Method: Male mice expressing the human cTnI gene encoding the human disease-causing mutation cTnI-G203S were used for all studies. […] Male mice expressing the normal human cTnI gene were used as controls (wt). Ten-week-old mice were used for in vitro studies. For in vivo studies, 20- or 30-wk-old cTnI-G203S mice were treated with 10 μM AID-TAT or AID[S]-TAT via intraperitoneal injection, 3×/wk/5 wk. In vivo dose of AID-TAT or AID[S]-TAT (10 μM) was calculated based on blood volume, equating to ∼2 mg/kg total BW. Male animal models were used to eliminate potential differences in responses due to sex. Experiments were performed in a total of 21 wt (AID[S]-TAT), 6 wt (AID-TAT), 15 cTnI-G203S (AID[S]-TAT), and 26 cTnI-G203S (AID-TAT) mice. All animals were randomly assigned to treatment groups.
Fluorescence was measured on a Hamamatsu Orca ER digital camera attached to an inverted Nikon TE2000-U microscope. […]
Additionally, individual 580 nm and 535 nm wavelength signals were assessed in each experiment to determine whether the fluorescent indicator was accurately measuring m. […] Ratiometric JC-1 or flavoprotein fluorescent signals were quantified by manually tracing myocytes and subtracting an equivalent background region […]

Sequence: QQLEEDLKGYLDWITQAE [AID-TAT]
- ICa-L current density [1]: no significant alteration
- ICa-L inactivation rate (tau) ([1]; 37 °C): restored ICa-L inactivation rate to wt levels
- increase in flavoprotein oxidation following BayK(−) [2]: reduced this response to a level comparable to that observed in wt myocytes
